Entries after “also recorded” stand apart in the source; their conditions may differ.
Columns and labels:
HUVEC = test: Direct binding of 125I-labeled plasminogen or angiostatin to endothelial cells, Scatchard analysis; parameters: species or system human; settings: 125I-labeled ligand, 1 h at 4° C., read-out: apparent dissociation constant (Kd)
Experimental: FIGS. 1A and 1B. Direct binding assay and Scatchard analysis of plasminogen and angiostatin with endothelial cells. HUVEC were plated at a density of 10,000 cells/well and incubated with increasing concentrations of ^125I-labeled-plasminogen or angiostatin. FIG. 1A. ^125I-labeled plasminogen binding was concentration-dependent and saturable with an apparent dissociation constant ([…]) of 158 nM and 870,000 sites/cell. FIG. 1B. […] Error bars represent standard deviation.
(§1) Binding Assays. Ligands were radioiodinated by using Iodobeads (Pierce), repurified on L-lysine-Sepharose, eluted with 100 mM ε-aminocaproic acid, and dialyzed in PBS, pH 7.0 before use in binding assays. HUVEC were plated at a density of 5,000 or 10,000 cells/well and incubated with increasing concentrations of ^125I-labeled ligand in media containing 1% BSA for 1 h at 4° C. in 96-well plates. Wells were washed, and remaining bound radioactivity was quantified by using an LKB 1272 γ-radiation counter. Nonspecific binding was measured in the presence of excess unlabeled ligand.

[1] = tested on: plasminogen binding sites on HUVEC; test: Competition binding assay, 125I-labeled plasminogen on HUVEC; parameters: species or system human; settings: 1.0 μM 125I-labeled plasminogen; 100-fold molar excess of unlabeled angiostatin
Experimental: FIG. 2. Competition binding assay between plasminogen and angiostatin. HUVEC were plated at a density of 10,000 cells/well and incubated with 1.0 μM ^125I-labeled plasminogen in the presence of 100-fold molar excess of unlabeled angiostatin for 1 h at 4° C. Cells were washed and the remaining radioactivity was quantified by γ-counting.
as §1

[2] = target: T1, recombinant alpha subunit of human ATP synthase (Homo sapiens, UniProt P25705); test: Ligand blot binding to the recombinant alpha subunit of ATP synthase; settings: ligand blot
T1 construct: His tag; made in house; host or cells: E. coli BL21DE3
Experimental: FIGS. 7A-7E. Angiostatin binding to the recombinant alpha subunit of human ATP synthase. The alpha subunit of human ATP synthase was cloned and expressed in E. coli and purified using Qiagen's nickel-Sepharose protein purification system before dialyzing in phosphate buffered saline (PBS), pH 7.0. Recombinant protein was electrophoresed on 5-15% SDS-PAGE, electroblotted onto Immobilon™ membrane and incubated 18 h in 10 mM Tris-HCl, 0.15M NaCl, 0.05% NP40, pH 7.5 (TSN) containing ^125I-angiostatin. For competition studies, unlabeled ligand was added 4 h prior to radiolabeled ligand. Blots were washed in TSN buffer containing 0.05% Tween80 and bound radioactivity was quantified on a Molecular Dynamics PhosphorImager™.
Purification of the alpha-Subunit of ATP Synthase. Competent E. coli BL21DE3 were transformed with the pET24a(+) vector containing the alpha subunit, plated on 2× Bacto-yeast tryptone (YT) agarose, and grown overnight at 37° C. Twenty milliliters of 2× YT containing […] kanamycin was inoculated with one colony and grown overnight at 37° C. (200 rpm). A 1-liter culture (2× YT, […] kanamycin) was inoculated with 20 ml of the noninduced overnight culture and grown at 37° C. to an OD of 0.6 at a wavelength of 600 nm. Isopropyl […] was added to a final concentration of 1 mM and grown for an additional 3 h. Cells were harvested by centrifugation at 8,000 rpm for 10 min and stored overnight at −20° C. Lysates were prepared under denaturing conditions and batch-purified by using Qiagen Ni-NTA agarose. Resulting protein was dialyzed against PBS, pH 7.0 for use in all experiments.

[3] = target: T2, purified bovine F1 ATP synthase (Bos taurus, UniProt P00829+P19483); test: F1 activity assay (ATPase, coupled NADH oxidation at 340 nm); assay type: biochemical; settings: angiostatin
T2 construct: from tissue; host or cells: bovine heart mitochondria
Experimental: FIG. 12 is a bar graph showing the inhibition of purified F1 ATP synthase by angiostatin. Purified F1 ATP synthase activity was measured spectrophotometrically at λ=340 nm by coupling the production of ADP to the oxidation of NADH via the pyruvate kinase and lactate dehydrogenase reaction in which a decrease in the absorbance at λ=340 nm indicates active protein (dark six membered rings). […] Control antibodies had no effect on activity (light circles and squares). Representative data shown, n=3.
Purification of Bovine Heart F1 ATP Synthase and F1 Activity Assay. Fresh bovine heart mitochondria were obtained as previously described (23) and sonicated to yield sub-mitochondrial particles (24). The F1 portion was separated from membrane-bound FO by chloroform extraction. The aqueous layer was centrifuged at 105,000×g to remove particulate matter before purifying over an S300 gel filtration column. […] ATPase activity was measured spectrophotometrically by monitoring at λ=340 nm by coupling the production of ADP to the oxidation of NADH via pyruvate kinase and lactate dehydrogenase reactions as described in Zheng,& Ramirez, Biochem Biophys Res Commun 261(25):499-503 (1999).

[4] = target: T3, ATP synthase on the surface of HUVEC (Homo sapiens, UniProt P05496+P06576+P25705); test: Cell-surface ATP generation by bioluminescent luciferase assay; assay type: cell-based
T3 construct: endogenous in cells; host or cells: HUVEC (primary human umbilical vein endothelial cells)
Experimental: Cell-surface ATP Assay. […] Cells were treated with (1 μM) angiostatin or (0.1 mg/mL) oligomycin for 1 hr at 37° C. All cells were then incubated with 0.1 Ci ^32P and 0.1 Ci ([…]) [2,8-^3H]-ADP (NEN Life Sciences) for 1 min. Supernatants were removed and centrifuged before assaying for ATP production by thin layer chromatography (TLC) or by firefly luciferase assay. ATP Generation by Bioluminescent Luciferase Assay. […] Louis, Mo.). In this firefly luciferin-luciferase reaction, only ATP is readily detected since the enzymatic reaction of firefly luciferase to oxidize luciferin is specific for ATP relative to all other nucleotides. Samples were injected with the ATP assay mixture and recordings were made in a LuminoskanRS (LabSystems, Franklin, Mass.) over a 10 s period. The response in a given sample or standard was quantified as area under the peak of the response and averaged for duplicate determinations. Data are expressed as picomoles of ATP produced per cell based on standards determined under the same conditions with each experiment. Angiostatin was prepared as described in Sottrup-Jensen, […]., Petersen, T. E. & Magnusson, S. (1978) Progress in Chemical Fibrinolysis and Thrombolysis (Raven Press, New York).

angiostatin
Kd (HUVEC): 245 nM
inhibition of 125I-labeled plasminogen binding [1]: unaffected; also recorded: no inhibition; also recorded: not inhibited
binding of 125I-labeled ligand to recombinant alpha subunit [2]: bound
inhibition of purified F1 ATPase activity [3]: completely inhibited
Percent Inhibition (+/− S.E.M.) of ATP generation ([4]; 1 μM, 50 μM ADP): 81%
inhibition of ATP generation with increasing concentrations ([4]; increasing concentrations of angiostatin): dose-dependent manner

— US20040022788A1, “Compositions and methods for promoting or inhibiting angiogenesis” (priority 1998, published 2004)
